Laboratory results as given in patent publication US20130303497A1, “DEUTERATED 5-HT1A RECEPTOR AGONISTS” (priority 2010, published 2013).
Like-named read-outs stand apart in the source and are kept apart here.

What was measured:
in vitro = conditions: pH 7.4
Protocol: The mixture of compound and microsome was pre-incubated for 30 minutes, initiating the reaction by addition of NADPH regenerating system (1 unit/mL Isocitric dehydrogenase). At time point 0, 5, 15, 30, 45 and 60 minutes the reactions were stopped by addition of 300 μL cold acetonitrile ([…]) containing 100 ng/mL tolbutamide as internal standard (IS). The samples were immediately mixed and centrifuged at 4000 rpm for 20 min. 100 μL supernatant was transferred to a fresh 96-well containing 300 μL HPLC-grade water for quantitative analysis by LC-MS/MS (LC: Shimatzu LC 10 AD; MS/MS detection: Sciex API4000), using positive ion electrospray. Triplicate experiments (n=3) was performed for each compound. A single-exponential curve (Ct=C0*e^−kt) was fitted to the concentration-time data points to calculate the elimination rate constant (k). The following equation 1 was used to calculate the total hepatic intrinsic clearance (CLint): […]

[1] = Plasma protein binding, equilibrium dialysis; assay type: in vitro ADME; conditions: human plasma dialysed against phosphate buffer, pH 7.4, mass recovery from the dialysis device
Protocol: (§1) Human plasma was obtained from Bioreclamation (Lot No. BRH354026). A 96-Well Micro-equilibrium Dialysis Device (HT-Dialysis LLC, Model HTD 96 b) separated by dialysis membrane (MWCO 12-14k, HT Dialysis), was used to study the protein binding. The dialysis membrane strips were soaked in distilled water for 1 hour and then in 20% ethanol in water (v/v) for another 20 minutes. The membrane strips were subsequently rinsed 20 min in pure water before use. The studied compounds were individually spiked into human plasma to a final concentration of 0.2 μM, and pre-incubated for 30 min. Aliquots (150 μL) of phosphate buffer (100 mM sodium phosphate, pH 7.4) and spiked plasma was placed in the receiver and donor compartment, respectively. The dialysis block was sealed and placed in a shaker (150 rpm) for 6 hours at 37° C. Each experiment was performed in triplicates (n=3). Aliquot 50 μL from both the donor sides and receiver sides of the dialysis devise was transferred into new sample preparation plates and mixed with the aliquots with same volume of opposite matrixes (blank buffer to plasma and visa verse). […] Hundred μL of the supernatant was transferred to a new 96-well plate and mixed with 200 μL of Milli-Q water containing 0.1% FA. Drug content was quantified with LC/MS/MS (Sciex API4000).
(§2) Percent bound to plasma is calculated as follows:
(§3) % Bound=100−(100×[Receiver]6h/[Donor]6h.) Equation 2
(§4) Mass recovery of test compound from the HTDialysis after 6 h is calculated as follows:
(§5) % Recovery=100×([Donor]6h+[Receiver]6h)/[Donor]0h Equation 3

human plasma proteins = test: Plasma protein binding, equilibrium dialysis; assay type: in vitro ADME; conditions: for degree of protein binding in human plasma compared to tandospirone: One-way ANOVA with Dunnett's test vs Tandospirone
Protocol: as §1, §2, §3, §4, §5

[2] = Permeability over MDR1-transfected MDCK cell monolayer; assay type: in vitro ADME, Canine; conditions: dog; MDR1-MDCK cell monolayer, 2 μM, 150-minute incubation, apical to basolateral
Protocol: (§6) The ability of molecules to pass a biological membrane, like the gastro-intestinal epithelia and the blood-brain barrier endothelia is essential for orally delivered drugs targeting diseases in the brain. The Madin-Darby Canine Kidney (MDCK) cell line is used as an industry standard to evaluate biomembrane passage properties of drugs. […] Test compounds were diluted with the transport buffer (HBSS+1% BSA) from a 10 mM stock solution to a concentration of 2 μM and applied to the apical (A) or basolateral (B) side of the cell monolayer.
(§7) In addition, the efflux ratio of each compound was also determined.
(§8) The apparent biomembrane permeability coefficient Papp (cm/s) was calculated using the equation:
(§9) Papp=(dCr/dt)×Vr/(A×C0) Equation 4
(§10) Where dCr/dt is the cumulative concentration of compound in the receiver chamber as a function of time (μM/s); Vr is the solution volume in the receiver chamber (0.075 mL on the apical side, 0.25 mL on the basolateral side); A is the surface area for the transport, i.e. 0.084 cm2 for the area of the monolayer; Co is the initial concentration in the donor chamber.
(§11) The efflux ratio was calculated using the equation:
(§12) Efflux Ratio=Papp(BA)/Papp(AB) Equation 5
(§13) Percent recovery was calculated using the equation:
(§14) % Recovery=100×[(Vr×Cr)+(Vd×Cd)]/(Vd×C0) Equation 6
(§15) Where Vd is the volume in the donor chambers (0.075 mL on the apical side, 0.25 mL on the basolateral side); Cd and Cr are the final concentrations of transport compound in donor and receiver chambers, respectively.

MDR1 (P-gp) = test: as above; assay type: in vitro ADME, Canine; conditions: dog, donor and receiver chamber, MDR1-MDCK monolayer, 2 μM
Protocol: as §6, §7, §8, §9, §10, §11, §12, §13, §14, §15

MDR1-MDCK cell monolayer = test: as above; assay type: in vitro ADME, Canine
Protocol: as §6, §7, §8, §9, §10, §11, §12, §13, §14, §15

[3] = target: serotonin 5-HT1A receptor; conditions: Hamik et al. 1990; read-out: Ki affinity value; cited from earlier work
[4] = tested on: serotonin 5-HT1A receptor; conditions: partial agonist; Tanaka et al. 1995 and Yabuuchi et al. 2004; cited from earlier work
[5] = in humans; Nakashima and Kanemaru 1992; cited from earlier work
plasma proteins = conditions: Miller et al., 1992; cited from earlier work
[6] = pH 7.4, 0.2 μM, equilibrium dialysis, 37° C., n=3, read-out: Protein binding (%) (converted)

Compound | CLint scaled at 1 μM (in vitro; human, microsomes) [mL/min/kg] | recovery at 6 h, 0.2 μM [1] [%] | degree of protein binding in human plasma compared to tandospirone (human plasma proteins) | fraction unbound at 6 h, 0.2 μM (human plasma proteins; [6]) | further results
[2H]C([2H])(CCCN1C(=O)[C@@H]2[C@@H]3CC[C@@H](C3)[C@@H]2C1=O)N1CCN(c2ncccn2)CC1 [Compound II, (1R,2R,6S,7S)-4-{4-[4-(pyrimidin-2-yl)piperazin-1-yl]-(4,4-^2H2)butyl}-4-azatricyclo[5.2.1.0^2,6]decane-3,5-dione] | 235 | 95 | statistically significant lower degree of protein binding | 0.42 | 
[2H]c1cnc(N2CCN(C([2H])([2H])CCCN3C(=O)[C@@H]4[C@@H]5CC[C@@H](C5)[C@@H]4C3=O)CC2)nc1 [Compound III, (1R,2R,6S,7S)-4-{4-[4-((5-^2H)pyrimidin-2-yl)piperazin-1-yl]-(4,4-^2H2)butyl}-4-azatricyclo[5.2.1.0^2,6]decane-3,5-dione] | 219 | 86 | statistically significant lower degree of protein binding | 0.51 | Papp A→B at 150 min, 2 μM [2]: 35 ×10⁻⁶ cm/s; recovery at 150 min, 2 μM (MDR1 (P-gp); MDCK-MDR1 cell monolayer): 112%; Papp, A-B compared to tandospirone (MDR1-MDCK cell monolayer; P<0.05, One-way ANOVA with Dunnett's test): statistically significant higher Papp, A-B
[2H]C([2H])(CCCN1C(=O)[C@@]2([2H])[C@H]3CC[C@H](C3)[C@@]2([2H])C1=O)N1CCN(c2ncccn2)CC1 [Compound XV, (1R,2R,6S,7S)-4-{4-[4-(pyrimidin-2-yl)piperazin-1-yl]-(4-^2H2)butyl}-(2,6-^2H2)-4-azatricyclo[5.2.1.0^2,6]decane-3,5-dione] | 229 | 92 |  | 0.38 | 
O=C(O)Cc1ccccc1Nc1c(Cl)cccc1Cl [Diclofenac, reference compound] | 90 |  |  |  | 
CC(Cc1ccc(O)cc1)NCC(O)c1cc(O)cc(O)c1 (stereo not drawn) [Fenoterol] |  |  |  |  | Papp A→B at 150 min, 2 μM [2]: 0.92 ×10⁻⁶ cm/s; recovery at 150 min, 2 μM (MDR1 (P-gp)): 109%
[2H]c1cnc(N2CCN(C([2H])CCCN3C(=O)[C@@H]4[C@@H]5CC[C@@H](C5)[C@@H]4C3=O)CC2)nc1 (stereo partly drawn) [IX, (1R,2R,6S,7S)-4-{4-[4-((5-^2H)pyrimidin-2-yl)piperazin-1-yl]-(4-^2H)butyl}-4-azatricyclo[5.2.1.0^2,6]decane-3,5-dione] |  |  | statistically significant lower degree of protein binding |  | 
CC(C)NCC(O)COc1cccc2ccccc12 (stereo not drawn) [Propranolol] |  |  |  |  | B-A/A-B efflux ratio (MDR1-MDCK cell monolayer; MDR1-MDCK cell monolayer, 2 μM): 62; Papp, A-B (×10^−6 cm/s) (MDR1-MDCK cell monolayer; MDR1-MDCK cell monolayer, 2 μM, 150-minute incubation, apical to basolateral): 15 ×10^−6 cm/s
O=C1[C@@H]2[C@@H]3CC[C@@H](C3)[C@@H]2C(=O)N1CCCCN1CCN(c2ncccn2)CC1 [Tandospirone, (1R,2R,6S,7S)-4-{4-[4-(pyrimidin-2-yl)piperazin-1-yl]butyl}-4-azatricyclo[5.2.1.0^2,6]decane-3,5-dione] |  |  |  |  | Ki [3]: 27 ± 5 nM; intrinsic activity [4]: 55-85%
O=C1[C@@H]2[C@H]3CC[C@H](C3)[C@@H]2C(=O)N1CCCCN1CCN(c2ncccn2)CC1 [Tandospirone, (1R,2R,6S,7S)-4-{4-[4-(pyrimidin-2-yl)piperazin-1-yl]butyl}-4-azatricyclo[5.2.1.0^2,6]decane-3,5-dione] | 282 | 82 |  |  | Protein binding (%) (human plasma proteins; 0.2 μM, equilibrium dialysis, 37° C., n=3): 70%; fraction unbound at 6 h, 0.2 μM (human plasma proteins; human, pH 7.4, read-out: observed unbound fraction): 0.3; Papp A→B at 150 min, 2 μM [2]: 30 ×10⁻⁶ cm/s; recovery at 150 min, 2 μM (MDR1 (P-gp); MDCK-MDR1 cell monolayer): 107%; elimination half-life in the systemic circulation [5]: 1 to 2 h; unbound fraction reported in the literature (plasma proteins): 30.4%
C[C@]12CC[C@H]3[C@@H](CCC4=CC(=O)CC[C@@]43C)[C@@H]1CC[C@@H]2O [Testosterone, reference compound] |  |  |  |  | CLint scaled at 1 μM (in vitro): 70 mL/min/kg
[2H]C1C([2H])[C@@H]2C[C@H]1[C@@H]1C(=O)N(CCCC([2H])([2H])N3CCN(c4ncccn4)CC3)C(=O)[C@@H]12 (stereo partly drawn) [VI, (1R,2R,6S,7S)-4-{4-[4-(pyrimidin-2-yl)piperazin-1-yl]-(4,4-^2H2)butyl}-(8,9-^2H2)-4-azatricyclo[5.2.1.0^2,6]decane-3,5-dione] | 240 | 96 | statistically significant lower degree of protein binding | 0.43 | 
[2H]c1cnc(N2CCN(C([2H])([2H])CCCN3C(=O)[C@@H]4[C@H](C3=O)[C@H]3C[C@@H]4C([2H])C3[2H])CC2)nc1 (stereo partly drawn) [VII, (1R,2R,6S,7S)-4-{4-[4-((5-^2H)pyrimidin-2-yl)piperazin-1-yl]-(4,4-^2H2)butyl}-(8,9-^2H2)-4-azatricyclo[5.2.1.0^2,6]decane-3,5-dione] | 231 | 94 |  | 0.31 | 
[2H]C([2H])(CN1C(=O)[C@@H]2[C@@H]3CC[C@@H](C3)[C@@H]2C1=O)C([2H])([2H])C([2H])([2H])N1CCN(c2ncccn2)CC1 [XVIII, (1R,2R,6S,7S)-4-{4-[4-(pyrimidin-2-yl)piperazin-1-yl]-(2,2,3,3,4,4-^2H6)butyl}-4-azatricyclo[5.2.1.0^2,6]decane-3,5-dione] | 224 | 111 | statistically significant lower degree of protein binding | 0.47 | 
